{"source": "patent US20170051249A1", "about": "“MANIPULATION OF OVARIAN PRIMORDIAL FOLLICLES” (The Board of Trustees of the Leland Stanford junior …, priority 2009, published 2017)", "key": {"PTEN": {"target": "PTEN (Homo sapiens, UniProt P60484)", "sequence (P60484 whole entry)": "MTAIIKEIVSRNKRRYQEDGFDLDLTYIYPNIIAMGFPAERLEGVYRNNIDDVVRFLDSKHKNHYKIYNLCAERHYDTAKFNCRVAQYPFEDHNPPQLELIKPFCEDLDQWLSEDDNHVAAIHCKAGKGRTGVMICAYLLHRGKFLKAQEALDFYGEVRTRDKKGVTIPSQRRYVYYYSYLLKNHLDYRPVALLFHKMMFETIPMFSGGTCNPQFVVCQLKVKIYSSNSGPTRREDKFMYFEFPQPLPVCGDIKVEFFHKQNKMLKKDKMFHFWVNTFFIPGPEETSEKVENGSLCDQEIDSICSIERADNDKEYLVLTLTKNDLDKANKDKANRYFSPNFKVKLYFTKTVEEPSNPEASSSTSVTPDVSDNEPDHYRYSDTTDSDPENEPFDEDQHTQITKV", "settings": "in vitro, known inhibitors; read-out: IC50 for inhibition of PTEN; cited from earlier work"}, "[1]": {"tested_on": "Foxo3 nuclear export in primordial oocytes", "assay": "Foxo3 nuclear export in primordial follicles of human ovarian cortical cubes", "format": "cell-based", "settings": "1 h treatment, 100 uM", "experimental": "(§1) Informed consent from the patient and approval from the Human Subject Committee of Akita University were obtained. Ovarian cortex was isolated and cut into small cubes (˜1 mm^3). After treatment of cortical cubes for 1 h with bpV(pic), some samples were used for immunohistochemical staining for Foxo3. Some ovarian cubes were also cultured in MEM-a medium containing 10% human serum albumin (Mitsubishi Tanabe Pharma Corp, Osaka, Japan), 1% antibiotic/antimycotic solution (Invitrogen), and 0.3 IU/ml FSH. Pairs of cortical cubes were treated with bpV(pic) ([…]) or saline for 24 h before xeno-transplantation into each side of the kidney capsule of ovariectomized, immune-deficient SCID mice. An i.p. injection of antibiotic (4 μg/g body weight; gentamicin; Invitrogen) was given while animals were anesthetized by 2,2,2-tribromoethanol (0.4 mg/g body weight; avertin; Sigma). Three day after transplantation, animals were treated i.p. with FSH (1 IU/animal) every 48 h for 24 weeks. At 36 h before sample retrieval, hCG (20 IU/animal) was injected subcutaneously. Ovarian grafts were recovered for histological analyses and follicle counting."}, "[2]": {"tested_on": "human primordial follicles", "assay": "Human follicle activation: cortical cubes treated in vitro, xeno-transplanted into kidney capsule of ovariectomized SCID mice, follicle counting", "format": "in vivo", "experimental": "as §1"}, "[3]": {"tested_on": "dormant primordial follicles of neonatal ovaries", "assay": "Transient in vitro exposure of neonatal mouse ovaries to PTEN inhibitor, kidney capsule transplantation into ovariectomized FSH-treated hosts, histology (Examples 2 and 3)", "format": "in vivo", "experimental": "Ovaries fixed for at least 24 h are dehydrated, embedded in paraffin, and serially sectioned at 5 μm intervals. The sections are mounted on glass slides and stained with Mayers hematoxylin and eosin. Follicles are counted using the dissector and fractionator principles (see Mayhew et al. (1991) Exp Physiol 76:639-65). Every fifth section of each ovary is used for analysis. Follicle stages are determined based on the classification used by Flaws et al. (1997) Biol. Reprod. 57:1233-1237. Follicles are assessed blindly and confirmed by two investigators. Data is expressed as percentage of follicle per ovary.\nFollicles are identified as healthy if they contained an intact oocyte, organized granulosa and thecal cell layers, and no pyknotic bodies. Follicles are considered atretic if they contain a degenerating oocyte, disorganized granulosa cells with pyknotic nuclei or apoptotic bodies. Follicles will be scored as “primordial” if they contain an intact oocyte with a visible nucleolus surrounded by a single layer of fusiform-shaped granulosa cells. Follicles are scored as “primary” if they consist of an intact, enlarged oocyte with a visible nucleolus and a single layer of cuboidal granulosa cells. Follicles are scored as preantral if they contain an oocyte with a visible nucleolus and more than one layer of granulosa or thecal cells. To obtain an estimate of the total number of follicles per ovary, the number of primordial, primary, and preantral follicles are multiplied by 5 to account for the fact that every fifth section was used for analyses. Statistical analysis of follicle number is performed using Sigmastat statistical software v.2 (Jandel Corporation, San Rafael, Calif., USA).\nTransient incubation of neonatal ovaries in vitro with bpV(pic) may avoid the adverse side effects of the PTEN inhibitor in vivo to allow a tissue-specific action of the inhibitor. After treatment using the PTEN inhibitor, ovaries are transplanted into adult hosts. To facilitate follicle growth, adult recipients are ovariectomized to increase endogenous gonadotropin levels. […]"}, "PTP": {"tested_on": "PTP", "settings": "read-out: IC50 as PTP inhibitor; cited from earlier work"}, "[4]": {"settings": "antral follicles of four grafts, after hCG"}}}
{"molecule": "O.O.O=C([O-])c1ccccn1.OO.OO.[K+].[K+].[OH-].[V]", "note": "[bpV(pic), dipotassium bisperoxo(picolinato)oxovanadate (V)]", "values": [{"measurement": "IC50", "setting": "PTEN", "value": 31, "unit": "nM"}, {"measurement": "increase in nuclear exclusion of Foxo3 versus controls", "setting": "[1]", "value": 2, "unit": "fold"}, {"measurement": "follicles that left the dormant primordial pool and developed into larger follicles", "setting": "[2]; 24 h treatment (100 mM), after transplantation, FSH 24 weeks", "value": 89, "unit": "%"}, {"measurement": "graft size as compared with controls", "setting": "[2]; 24 h treatment, 6 months after xeno-transplantation", "value": "major increases in graft sizes"}, {"measurement": "increases in the number of secondary and antral follicles", "setting": "[2]; 24 h treatment, after xeno-transplantation", "value": "~4", "unit": "fold"}, {"measurement": "number of oocytes at GV stage", "setting": "[2]; [4]", "value": 5}, {"measurement": "number of oocytes at MI stage", "setting": "[2]; [4]", "value": 15}, {"measurement": "number of oocytes at MII stage", "setting": "[2]; [4]", "value": 12}, {"measurement": "number of antral follicles (>1 mm diameter)", "setting": "[2]; in four ovarian grafts", "value": 32}, {"measurement": "malignancy in xenografted human ovaries or hosts", "setting": "[2]; six months of transplantation, short term exposure", "value": "No malignancy was found"}, {"measurement": "increase in the number of antral follicles", "setting": "[2]; versus paired control grafts", "value": 4, "unit": "fold"}, {"measurement": "increase in the number of mature (MI & MII) oocytes", "setting": "[2]; versus paired control grafts", "value": 27, "unit": "fold"}, {"measurement": "ovarian size as compared with control ovaries", "setting": "[3]; 100 μM for 24 h in vitro, twelve days after transplantation", "value": "clear increases in sizes"}, {"measurement": "decrease of the percentage of primordial (Pmd) follicles as compared to controls", "setting": "[3]; 250 uM for 6 h in vitro, day 3 Balb/c ovaries, transplanted, FSH 12 days, preliminary analysis, three pairs of ovaries", "value": 60, "unit": "%"}, {"measurement": "effect on follicle development and nuclear maturation of the preovulatory oocyte", "setting": "[3]; 6 h in vitro exposure, 15 days after transplantation, hCG 8 h", "value": "did not cause detrimental effects"}]}
{"molecule": "OO.OO.[K+].[OH-].[V].c1cnc2c(c1)ccc1cccnc12", "note": "[potassium bisperoxo (1,10-phenanthroline)oxovanadate (V)]", "values": [{"measurement": "IC50", "setting": "PTEN", "value": 38, "unit": "nM"}]}
{"molecule": "dipotassium bisperoxo(5-hydroxypyridine-2-carboxyl)oxovanadate (V)", "values": [{"measurement": "IC50", "setting": "PTEN", "value": 14, "unit": "nM"}]}
{"molecule": "monoperoxo(picolinato)oxovanadate(V)", "values": [{"measurement": "IC50", "setting": "PTP", "value": 18000, "unit": "nM"}]}
{"molecule": "potassium bisperoxo(bipyridine)oxovanadate (V)", "values": [{"measurement": "IC50", "setting": "PTEN", "value": 18, "unit": "nM"}]}
